The values that follow come from patent US11083717B2, “Compositions and methods for drug sensitization of parasites” (The Texas A&M University System, priority 2015, dated 2021).

In data set [1] the test system is Cryptosporidium parvum (CP). As to the kind of experiment: Cell culture model of Cryptosporidium parvum infection in HCT-8 cells, real-time qRT-PCR. Format: cell-based. As to conditions: for inhibition at 0.056 µM: HCT-8, @0.056 uM. The procedure: Fresh oocysts of CP (Iowa strain) were purchased from Bunch Grass Farm (Deary, Id.). Oocysts were further purified by a Percoll-based gradient centrifugation method and surface sterilized with 10% bleach for 7 min on ice, followed by washes with phosphate-buffered saline (PBS). An ileocecal colorectal adenocarcinoma cell line (HCT-8, ATCC #CCL-244) was used to host the growth of CP in vitro. One day before the inoculation, HCT-8 cells were seeded in 96-well plates (2.5×10^4/well) containing RPMI 1640 medium supplied with 10% fetal bovine serum (200 μL medium/well in all experiments) and allowed to grow overnight at 37° C. under 5% CO2 atmosphere until they reached ˜90% confluence. For drug testing, host cells were infected with 1.5×10^4 oocysts per well (ratio ˜1:3). After inoculation, parasite oocysts were allowed to undergo excystation and invasion into host cells for 3 h at 37° C. Free parasites and oocyst walls in the medium were removed from the plates by an exchange of the culture medium. Drugs at specified concentrations were added into the culture at this time point (immediately after the medium exchange). Parasite-infected cells were then incubated at 37° C. for additional 41 h (total 44 h infection time). At least two independent experiments were conducted for every experimental condition, each including two replicates drugs and eight replicates for negative controls.
Plates containing HCT-8 cells infected with CP for 44 h were first centrifuged for 10 min at 1000×g to ensure that free merozoites in the medium were firmly settled on the bottom of the wells. Medium was removed, followed by two gentle washes with PBS. For extracting total RNA, 200 μL of ice-cold Bio-Rad iScript qRT-PCR sample preparation reagent (lysis buffer) (Bio-Rad Laboratories, Hercules, Calif.) was added into each well. Plates were sealed with heat sealing films and subjected to vortex for 20 min. Plates were then incubated at 75° C. for 15 min, followed by centrifugation (5 min, 2000×g) to settle down cell debris. Supernatants were used immediately in subsequent qRT-PCR reactions or the plates were stored at −80° C. until use.
The levels of 18S rRNA transcripts from CP and host cells (referred to as Cp18S and Hs18S) were detected by real-time qRT-PCR method using qScrip™ one-step SYBR green qRT-PCR kit (Quanta Biosciences, Gaithersburg, Md.). Cell lysates prepared as described above were diluted by 100 and 2000 folds for detecting Cp18S and Hs18S transcripts, respectively. Reactions were performed in hard-shell 384-well skirted PCR plates (Bio-Rad Laboratories, Hercules, Calif.) (10 μL/well) containing 3 μL diluted cell lysate, 5 μL one-step SYBR green master mix, 0.2 μl RT master mix and the following primers: Cp18S-1011F and Cp18S-1185R primer pair for Cp18S rRNA, and Hs18S-1F and Hs18S-1R primer pair for Hs18S rRNA. Hs18S levels were used as controls and for normalization.
Real-time qRT-PCR reactions were performed by a Bio-Rad CFX384 Touch Real-Time PCR Detection System. The reactions started with synthesizing cDNA at 50° C. for 20 min, followed by 5 min at 95° C. to denature RNA-cDNA hybrids and deactivate reverse transcriptase, and 40 two-temperature thermal cycles of PCR amplification at 95° C., 10 sec and 58° C., 30 sec. At the end of PCR amplification, melting curve analysis was performed between 65° C. to 95° C. At least 2 technical replicates were included in qRT-PCR reactions for each sample.
The % inhibition (% inh @ (μM)) was calculated using a standard curve.

For a further data set, the system named is human fibroblast. As to the kind of experiment: in vitro. To be noted: human.
The subject of the next data set is S. cerevisiae. As to the kind of experiment: in vitro. To be noted: Saccharomyces cerevisiae.
Where [2] appears, read: Cryptosporidium parvum, 44 h, CP in HCT-8 cells, 44 h infection, 50% reduction of parasite growth vs control, NA: not active, read-out: MIC50.
[3] abbreviates: CP in HCT-8 cells, 44 h infection, 50% reduction of parasite growth vs control, NA: not active, read-out: MIC50.

≈ marks a conversion by molar mass, not a printed value. Where two headings read alike, the source gives them in different places. A value given as a limit tells only on which side of the number the result lay.

In the case of `CC(C(=O)N1CCN(C)CC1)c1ccc(Oc2nc3ccc(Cl)cc3s2)cc1` (single isomer, unassigned) [NZ-366 (peak 1), 2-{4-[(6-chloro-1,3-benzothiazol-2-yl)oxy]phenyl}-1-(4-methylpiperazin-1-yl)propan-1-one], in data set [1] (setting [2]), the MIC50 (in general, the lowest concentration that inhibits either 50% of growth or 50% of the strains tested, depending on the study) was less than 0.05 µM. In data set [1] (Cryptosporidium parvum, HCT-8, @0.05 uM, read-out: % inh @), the inhibition at 0.05 µM stood at 85%.

For the compound `CC(C(=O)N1CCN(C)CC1)c1ccc(Oc2nc3ccc(Cl)cc3s2)cc1` (single isomer, unassigned) [NZ-366 (peak 2), 2-{4-[(6-chloro-1,3-benzothiazol-2-yl)oxy]phenyl}-1-(4-methylpiperazin-1-yl)propan-1-one], the “% inh @ (μM)” value in data set [1] (@0.05 uM) came to 81% @0.05 uM. Besides, the MIC50 in data set [1] (setting [3]) is given as less than 0.05 µM.

Regarding `CNC(=O)C(C)c1ccc(Oc2nc3ccc(Cl)cc3s2)cc1` (single isomer, unassigned) [NZ-369 (peak 1), 2-{4-[(6-chloro-1,3-benzothiazol-2-yl)oxy]phenyl}-N-methylpropanamide], the MIC50 in data set [1] (setting [3]) is given as 0.07 µM (≈ 0.0243 µg/mL).

In the case of `CNC(=O)C(C)c1ccc(Oc2nc3ccc(Cl)cc3s2)cc1` (single isomer, unassigned) [NZ-369 (peak 2), 2-{4-[(6-chloro-1,3-benzothiazol-2-yl)oxy]phenyl}-N-methylpropanamide], the “MIC50” value in data set [1] (CP in HCT-8 cells, 44 h infection, 50% reduction of parasite growth vs control, NA: not active) was approximately 0.02 µM (≈ 0.00694 µg/mL).

In the case of `CS(=O)(=O)NC(=O)COc1ccc(Oc2cnc3cc(Cl)ccc3n2)cc1` [NZ-259, 2-{4-[(6-chloroquinoxalin-2-yl)oxy]phenoxy}-N-methanesulfonylacetamide], the MIC50 in data set [1] (setting [2]) is more than 10 µM. Further, the inhibition at 10 µM in data set [1] (Cryptosporidium parvum, HCT-8, @10 uM, read-out: % inh @) is 33%.

As for `C[C@@H](Oc1ccc(Oc2nc3ccc([N+](=O)[O-])cc3s2)cc1)C(=O)O` [NZ-261, (2R)-2-{4-[(6-nitro-1,3-benzothiazol-2-yl)oxy]phenoxy}propanoic acid], the MIC50 in data set [1] (Cryptosporidium parvum, 44 h) was approximately 10 µM (≈ 3.6 µg/mL). In data set [1] (Cryptosporidium parvum, HCT-8, read-out: % inh @ (μM)), the inhibition at 10 µM is 60%.

As for `CN1CCN(C(=O)COc2ccc(Oc3cnc4cc(Cl)ccc4n3)cc2)CC1` [NZ-278, 2-{4-[(6-chloroquinoxalin-2-yl)oxy]phenoxy}-1-(4-methylpiperazin-1-yl)ethan-1-one], the MIC50 in data set [1] (Cryptosporidium parvum, 44 h) was approximately 0.25 µM (≈ 0.103 µg/mL).

On to `CC(C(=O)N1CCN(CC(F)(F)F)CC1)c1ccc(Oc2nc3ccc(Cl)cc3s2)cc1` (stereo not shown) [NZ-512], for which the “concentrations at which not toxic, human fibroblast cytotoxicity testing” value in the data set with human fibroblast was not below 100 µM. In addition, in the data set on S. cerevisiae, the “concentrations at which not toxic, S. cerevisiae cytotoxicity testing” value is not below 100 µM.

`CC(C(=O)N1CCN(C2COC2)CC1)c1ccc(Oc2nc3ccc(Cl)cc3s2)cc1` (stereo not shown) [NZ-513, 2-{4-[(6-chloro-1,3-benzothiazol-2-yl)oxy]phenyl}-1-[4-(oxetan-3-yl)piperazin-1-yl]propan-1-one]: the “concentrations at which not toxic, human fibroblast cytotoxicity testing” value in the data set on human fibroblast was not below 100 µM. Moreover, the “concentrations at which not toxic, S. cerevisiae cytotoxicity testing” value with S. cerevisiae was not below 100 µM.

For `CC(C(=O)NCCN)c1ccc(Oc2nc3ccc(Cl)cc3s2)cc1` (stereo not shown) [NZ-518, N-(2-aminoethyl)-2-{4-([6-chloro-1,3-benzothiazol-2-yl)oxy]phenyl}propanamide], in data set [1] (setting [2]), the MIC50 is more than 0.45 µM.

On to `CNC(=O)C1(c2ccc(Oc3nc4ccc(Cl)cc4s3)cc2)CC1` [NZ-521, 1-{4-[(6-chloro-1,3-benzothiazol-2-yl)oxy]phenyl}-N-methylcyclopropane-1-carboxamide], for which the MIC50 in data set [1] (setting [2]) was determined as 0.25 µM (≈ 0.0897 µg/mL).

Regarding `CN1CCN(C(=O)C2(c3ccc(Oc4nc5ccc(Cl)cc5s4)cc3)CC2)CC1` [NZ-522, 6-chloro-2-{4-[1-(4-methylpiperazine-1-carbonyl)cyclopropyl]phenoxy}-1,3-benzothiazole], the MIC50 in data set [1] (setting [2]) lay within 0.022 to 0.045 µM (≈ 0.00942 to 0.0193 µg/mL).

Take `CC(C(=O)N1CCOCC1)c1ccc(Oc2cnc3cc(Cl)ccc3n2)cc1` (stereo not shown) [NZ-529, 2-{4-[(6-chloroquinoxalin-2-yl)oxy]phenyl}-1-(morpholin-4-yl)propan-1-one]: the MIC50 in data set [1] (setting [2]) was more than 0.45 µM.

As for `CC(C(=O)N(C)C)c1ccc(Oc2cnc3cc(Cl)ccc3n2)cc1` (stereo not shown) [NZ-530, 2-{4-([6-chloroquinoxalin-2-yl)oxy]phenyl}-N,N-dimethylpropanamide], the MIC50 in data set [1] (setting [2]) is approximately 0.225 µM (≈ 0.0801 µg/mL).

Turning to `CC(C(=O)NCC(O)CO)c1ccc(Oc2cnc3cc(Cl)ccc3n2)cc1` (stereo not shown) [NZ-534, 2-{4-[(6-chloroquinoxalin-2-yl)oxy]phenyl}-N-(2,3-dihydroxypropyl)propanamide], the “concentrations at which not toxic, human fibroblast cytotoxicity testing” value in the data set with human fibroblast is not below 100 µM. Further, the “concentrations at which not toxic, S. cerevisiae cytotoxicity testing” value with S. cerevisiae was not below 100 µM.

Take `CC(C(=O)NCCN(C)C)c1ccc(Oc2cnc3cc(Cl)ccc3n2)cc1` (stereo not shown) [NZ-535]: in data set [1] (setting [2]), the MIC50 lay within 0.225 to 0.45 µM (≈ 0.0898 to 0.18 µg/mL).

Turning to `COCC(COC)NC(=O)C(C)c1ccc(Oc2nc3ccc(Cl)cc3s2)cc1` (stereo not shown) [NZ-542, 2-{4-[(6-chloro-1,3-benzothiazol-2-yl)oxy]phenyl}-N-(1,3-dimethoxypropan-2-yl)propanamide], the MIC50 in data set [1] (setting [2]) stood at 0.112 µM (≈ 0.0487 µg/mL).

On to `CC(C(=O)N(C)CCN(C)C)c1ccc(Oc2nc3ccc(Cl)cc3s2)cc1` (stereo not shown) [NZ-547, 2-{4-[(6-chloro-1,3-benzothiazol-2-yl)oxy]phenyl}-N-[2-(dimethylamino)ethyl]-N-methylpropanamide], for which, in data set [1] (setting [2]), the MIC50 is less than 0.056 µM. Further, the inhibition at 0.056 µM in data set [1] (Cryptosporidium parvum) came to 96%.

With `CNCCNC(=O)C(C)c1ccc(Oc2nc3ccc(Cl)cc3s2)cc1` (stereo not shown) [NZ-548, 2-{4-[(6-chloro-1,3-benzothiazol-2-yl)oxy]phenyl}-N-[2-(methylamino)ethyl]propanamide], in data set [1] (setting [2]), the MIC50 was in the range of 0.112 to 0.225 µM (≈ 0.0437 to 0.0877 µg/mL). This compound also displayed an inhibition at 0.112 µM in data set [1] (Cryptosporidium parvum, HCT-8, @0.112 uM) of 45%.

For the compound `CC(C(=O)N1CCOC(C(N)=O)C1)c1ccc(Oc2nc3ccc(Cl)cc3s2)cc1` (stereo not shown) [NZ-554, 4-(2-{4-[(6-chloro-1,3-benzothiazol-2-yl)oxy]phenyl}propanoyl)morpholine-2-carboxamide], the MIC50 in data set [1] (setting [2]) was in the range of 0.056 to 0.112 µM (≈ 0.025 to 0.0499 µg/mL).

As to `CC(C(=O)N1CCOCC1CO)c1ccc(Oc2nc3ccc(Cl)cc3s2)cc1` (stereo not shown) [NZ-555, 2-{4-[(6-chloro-1,3-benzothiazol-2-yl)oxy]phenyl}-1-[3-(hydroxymethyl)morpholin-4-yl]propan-1-one], the MIC50 in data set [1] (setting [2]) was less than 0.056 µM. The compound also displayed an inhibition at 0.056 µM in data set [1] (Cryptosporidium parvum) of 79%.

Turning to `CC(C(=O)NCCN(C)CCO)c1ccc(Oc2nc3ccc(Cl)cc3s2)cc1` (stereo not shown) [NZ-556, 2-{4-[(6-chloro-1,3-benzothiazol-2-yl)oxy]phenyl}-N-{2-[(2-hydroxyethyl)(methyl)amino]ethyl}propanamide], the MIC50 in data set [1] (setting [2]) was approximately 0.056 µM (≈ 0.0243 µg/mL). Further, in data set [1] (Cryptosporidium parvum), the inhibition at 0.056 µM came to 64%.

On to `CC(C(=O)NCCN(CCO)CCO)c1ccc(Oc2nc3ccc(Cl)cc3s2)cc1` (stereo not shown) [NZ-557, N-{2-[bis(2-hydroxyethyl)amino]ethyl}-2-{4-[(6-chloro-1,3-benzothiazol-2-yl)oxy]phenyl}propanamide], for which, in data set [1] (setting [2]), the MIC50 lay within 0.112 to 0.225 µM (≈ 0.052 to 0.104 µg/mL).

For the compound `CC(C(=O)N1CCOC(CO)C1)c1ccc(Oc2nc3ccc(Cl)cc3s2)cc1` (stereo not shown) [NZ-558, 2-{4-[(6-chloro-1,3-benzothiazol-2-yl)oxy]phenyl}-1-[2-(hydroxymethyl)morpholin-4-yl]propan-1-one], the MIC50 in data set [1] (setting [2]) was approximately 0.056 µM (≈ 0.0242 µg/mL).

For `O=C(N1CCOCC1)C1(c2ccc(Oc3nc4ccc(Cl)cc4s3)cc2)CC1` [NZ-561, 6-chloro-2-{4-[1-(morpholine-4-carbonyl)cyclopropyl]phenoxy}-1,3-benzothiazole], the MIC50 in data set [1] (setting [2]) stood at 0.04 µM (≈ 0.0166 µg/mL).

Turning to `CC(C(=O)NC1CNC(=O)C1)c1ccc(Oc2nc3ccc(Cl)cc3s2)cc1` (stereo not shown) [NZ-562, 2-{4-[(6-chloro-1,3-benzothiazol-2-yl)oxy]phenyl}-N-(5-oxopyrrolidin-3-yl)propanamide], in data set [1] (setting [2]), the MIC50 is approximately 0.45 µM (≈ 0.187 µg/mL).
